Test results from US20230295068A1, “NOVEL CYCLOALKENONE COMPOUND OR SALT THEREOF” (TAIHO PHARMACEUTICAL CO., LTD., priority 2020, published 2023).

Experiments:
[1] = Pharmacokinetics: plasma concentration after oral administration to rats; assay type: in vivo, rat; details: 10 mg/kg; for AUC(0-inf) / Cmax: Crl:CD(SD) (Sprague-Dawley), male rat (Crl: CD (SD)), plasma
Experimental: The required amounts of compounds were weighed, and drug suspensions were prepared in 0.5% hydroxypropyl methylcellulose. The number of rats in each group was two, and each drug suspension was administered orally to each male rat (Crl: CD (SD)) using an oral sonde (the dose of the compound was 10 mg/kg). At each blood collection point (0.5, 1, 2, 4, 8, and 24 hours after administration), blood was collected from the jugular vein using a syringe and a needle (the anticoagulant was heparin sodium). The collected blood was centrifuged (13000 rpm, 2 min, 4° C.) to prepare plasma, followed by deproteinization. Thereafter, the concentration of the compound in the plasma was measured by LC/MS/MS (ICMS-8040 (Shimadzu Corporation) or API 4000 (AB Sciex), IC: 30-A and 20-A series (Shimadzu Corporation) or Waters Acquity (Waters Corporation)).

[2] = system: ND3 neuronal cell line; assay: Measurement of nerve growth stimulation effect (neurite bearing assay, neurite length assay, number of cells); assay type: cell-based; details: for viability at 1 µM / viability at 3 µM / viability at 5 µM / viability at 10 µM / viability at 30 µM / viability at 100 µM: 6 hours, relative cell number, DMSO well = 1
Outline: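 ND3 cells were exposed 6 h to compounds in DMEM with 0.1% BSA (0.1% DMSO final), in duplicate. Neurite-bearing fraction (neurite longer than cell-body diameter) and neurite length per cell were scored by imaging and expressed relative to compound 24 maximum. Cell number was relative to DMSO wells; data with relative count <0.5 were excluded.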

[3] = system: streptozotocin (STZ)-induced DM model SD rats; assay: Evaluation of drug efficacy in diabetes mellitus (DM) rat model (bladder function, residual urine volume); assay type: in vivo; details: oral twice a day for 4 weeks
Experimental: To examine the effect of the compound in a diabetes mellitus model, bladder function was analyzed by […] based on the method of Saitoh et al. (European Journal of Pharmacology 501 (2004) 143-149).
A streptozotocin (STZ) solution obtained by dissolving STZ in a citrate buffer solution (0.1 M citric acid, pH of 4.2) to a concentration of 32.5 mg/mL was prepared, and administered intraperitoneally (65 mg/kg) to SD rats to induce DM models. The same procedure was performed on sham rats except that a citrate buffer solution was used in place of the STZ solution.
On the day after the model production and 4 weeks later, a blood sample was taken from the tail vein with the rats awake to measure the blood glucose level. […] Individuals with a blood glucose level of 300 mg/dL or more on the day after the production of the model and 4 weeks later were determined to be established DM models and used in subsequent operations. […]
A pressure transducer (DX-360, Nihon Kohden Kogyo Co., Ltd.) and an infusion pump (TE-331S, Terumo Corporation) were connected via a three-way valve to the other end of a catheter inserted into the bladder. […] The volume of urination was automatically measured using an electronic balance (GX-200, A&D Company Limited) set directly under the holding cage, and recorded continuously on a computer using a PowerLab (sampling rate: 20/sec). […]

CC1=C(CCCCCCCCCCCCCCCO)C(C)(C)CCC1=O [Compound 4, 3-(15-hydroxypentadecyl)-2,4,4-trimethylcyclohex-2-en-1-one, reference compound]
AUC(0-inf) [1]: 0.003 µM·h | Cmax [1]: 2 nM | viability at 1 µM [2]: 103% | viability at 3 µM [2]: 92% | viability at 5 µM [2]: 92% | viability at 10 µM [2]: 101% | viability at 30 µM [2]: 19%

COCCCCCCCCCCCCCCCC1=C(C)C(=O)CCC1(C)C [Compound 24, 3-(15-methoxypentadecyl)-2,4,4-trimethylcyclohex-2-en-1-one]
AUC(0-inf) [1]: 5.9 µM·h | Cmax [1]: 2200 nM | improvement in area under the curve (AUC) as compared to the compound 4 ([1]; rat): ≥ 1900 times | improvement in maximum blood concentration Cmax as compared to the compound 4 ([1]; rat): ≥ 1100 times | drug efficacy (residual urine volume, FIG. 1) as compared to the compound 4 [3]: remarkable drug efficacy | viability at 1 µM [2]: 106% | viability at 3 µM [2]: 101% | viability at 5 µM [2]: 94% | viability at 10 µM [2]: 92% | viability at 30 µM [2]: 96% | viability at 100 µM [2]: 92% | number of relative cells ([2]; 1 to 100 μM): ≥ 0.5

COCCCCCCCCCCCCCCCC1=C(C)C(=O)C=CC1(C)C [Compound 41, 3-(15-methoxypentadecyl)-2,4,4-trimethylcyclohex-2,5-dien-1-one]
viability at 1 µM [2]: 110% | viability at 3 µM [2]: 112% | viability at 5 µM [2]: 82% | viability at 10 µM [2]: 93% | viability at 30 µM [2]: 109% | viability at 100 µM [2]: 114%
